Here are results for 21 compounds from patent US11918581B2, “Combination therapy comprising JAK pathway inhibitor and rock inhibitor” (Incyte Corporation, priority 2021, dated 2024).

Experiment [1] has as its target human JAK1 (a.a. 837-1142) (Homo sapiens, UniProt P23458). The experiment in a line: In vitro JAK kinase assay (HTRF), JAK1. The format is biochemical. To be noted: 1 mM ATP. (In general: In TR-FRET formats the signal depends on donor and acceptor labels being close together.)
Experimental: (§1) The catalytic activity of JAK1, JAK2, or JAK3 was assayed by measuring the phosphorylation of a biotinylated peptide. The phosphorylated peptide was detected by homogenous time resolved fluorescence (HTRF). […] Reactions are carried out at room temperature for 1 hour and then stopped with 20 μL 45 mM EDTA, 300 nM SA-APC, 6 nM Eu-Py20 in assay buffer (Perkin Elmer, Boston, MA). Binding to the Europium labeled antibody takes place for 40 minutes and HTRF signal was measured on a Fusion plate reader (Perkin Elmer, Boston, MA).
In experiment [2] the target is human JAK2 (a.a. 828-1132) (Homo sapiens (Human), UniProt O60674). Briefly: In vitro JAK kinase assay (HTRF), JAK2. Format: biochemical. Conditions: JAK2/JAK1 IC50 ratio, 1 mM ATP.
Experimental: as §1

A value given as a limit tells only on which side of the number the result lay.

human JAK2 (a.a. 828-1132), sequence (O60674 828-1132): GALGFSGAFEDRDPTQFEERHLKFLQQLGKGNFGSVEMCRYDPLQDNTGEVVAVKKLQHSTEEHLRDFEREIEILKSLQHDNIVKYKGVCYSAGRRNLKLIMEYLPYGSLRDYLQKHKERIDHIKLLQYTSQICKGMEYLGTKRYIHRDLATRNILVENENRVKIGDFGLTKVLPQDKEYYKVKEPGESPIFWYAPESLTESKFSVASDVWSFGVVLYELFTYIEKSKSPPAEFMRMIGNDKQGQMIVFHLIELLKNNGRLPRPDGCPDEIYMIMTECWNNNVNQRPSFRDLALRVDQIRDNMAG

For the compound `C[C@H](NC(=O)c1cc(F)c(N2CC(CC#N)(n3cc(-c4ncnc5[nH]ccc45)cn3)C2)cc1F)C(F)(F)F` [Compound 16, 4-{3-(cyanomethyl)-3-[4-(7H-pyrrolo[2,3-d]pyrimidin-4-yl)-1H-pyrazol-1-yl]azetidin-1-yl}-2,5-difluoro-N-[(1S)-2,2,2-trifluoro-1-methylethyl]benzamide], in experiment [1], the IC50 – broadly, the concentration that inhibits the measured activity by half – was less than 0.01 µM. Besides, the JAK2/JAK1 in experiment [2] is more than 10.
Take `N#CCC1(n2cc(-c3ncnc4[nH]ccc34)cn2)CN([C@H]2CC[C@@H](Oc3cc(CN4CC[C@@H](O)C4)cc(C(F)(F)F)n3)CC2)C1` [Compound 21, {1-(cis-4-{[4-{[(3R)-3-hydroxypyrrolidin-1-yl]methyl}-6-(trifluoromethyl)pyridin-2-yl]oxy}cyclohexyl)-3-[4-(7H-pyrrolo[2,3-d]pyrimidin-4-yl)-1H-pyrazol-1-yl]azetidin-3-yl}acetonitrile]: the IC50 in experiment [1] is less than 0.01 µM. Further, the JAK2/JAK1 in experiment [2] is reported as more than 10.
For `N#CCC1(n2cc(-c3ncnc4[nH]ccc34)cn2)CN(C2CCN(C(=O)c3ccnc(C(F)(F)F)n3)CC2)C1` [Compound 3, [3-[4-(7H-pyrrolo[2,3-d]pyrimidin-4-yl)-1H-pyrazol-1-yl]-1-(1-{[2-(trifluoromethyl)pyrimidin-4-yl]carbonyl}piperidin-4-yl)azetidin-3-yl]acetonitrile], in that order: less than 0.01 µM and more than 10.
Take `N#CCC1(n2cc(-c3ncnc4[nH]ccc34)cn2)CN(C2CCN(C(=O)Nc3ccc(F)cc3C(F)(F)F)CC2)C1` [Compound 2, 4-{3-(Cyanomethyl)-3-[4-(7H-pyrrolo[2,3-d]pyrimidin-4-yl)-1H-pyrazol-1-yl]azetidin-1-yl}-N-[4-fluoro-2-(trifluoromethyl)phenyl] piperidine-1-carboxamide]: in experiment [1], the 50% inhibitory concentration (IC50) is less than 0.01 µM. Further, the JAK2/JAK1 in experiment [2] is reported as more than 10.
`N#CC[C@]1(n2cc(-c3ncnc4[nH]ccc34)cn2)C[C@H](N2CCC(Oc3cc(CN4CC(O)C4)cc(C(F)(F)F)n3)CC2)C1` [Compound 11, {trans-3-(4-{[4-[(3-hydroxyazetidin-1-yl)methyl]-6-(trifluoromethyl)pyridin-2-yl]oxy}piperidin-1-yl)-1-[4-(7H-pyrrolo[2,3-d]pyrimidin-4-yl)-1H-pyrazol-1-yl]cyclobutyl}acetonitrile] returned an IC50 in experiment [1] of less than 0.01 µM. Besides, the JAK2/JAK1 in experiment [2] is given as more than 10.
In the same order, the values of `N#CCC(C1CCN(c2nc3cccnc3o2)C1)n1cc(-c2ncnc3[nH]ccc23)cn1` (stereo not drawn) [Compound 7, 3-(1-[1,3]oxazolo[5,4-b]pyridin-2-ylpyrrolidin-3-yl)-3-[4-(7H-pyrrolo[2,3-d]pyrimidin-4-yl)-1H-pyrazol-1-yl]propanenitrile] are less than 0.01 µM and more than 10.
In experiment [1], `N#CC[C@]1(n2cc(-c3ncnc4[nH]ccc34)cn2)C[C@H](N2CCC(Oc3cc(CN4CCC[C@H]4CO)cc(C(F)(F)F)n3)CC2)C1` [Compound 12, {trans-3-(4-{[4-{[(2S)-2-(hydroxymethyl)pyrroli-din-1-yl]methyl}-6-(trifluoromethyl)pyridin-2-yl]oxy}piperidin-1-yl)-1-[4-(7H-pyrrolo[2,3-d]pyrimidin-4-yl)-1H-pyrazol-1-yl]cyclobutyl}acetonitrile] gave an IC50 of less than 0.01 µM. In addition, in experiment [2], the JAK2/JAK1 is listed as more than 10.
On to `C[C@@H](O)c1nc2cnc3ccsc3c2n1[C@H]1CC[C@H](CC#N)OC1` [Compound 5, ((2R,5S)-5-{2-[(1R)-1-hydroxyethyl]-1H-imidazo[4,5-d]thieno[3,2-b]pyridin-1-yl}tetrahydro-2H-pyran-2-yl)acetonitrile], for which the IC50 in experiment [1] was less than 0.1 µM. The JAK2/JAK1 in experiment [2] is given as more than 10.
In the case of `N#CCC1(n2cc(-c3ncnc4[nH]ccc34)cn2)CN([C@H]2CC[C@@H](Oc3cc(CN4CC[C@H](O)C4)cc(C(F)(F)F)n3)CC2)C1` [Compound 22, {1-(cis-4-{[4-{[(3S)-3-hydroxypyrrolidin-1-yl]methyl}-6-(trifluoromethyl)pyridin-2-yl]oxy}cyclohexyl)-3-[4-(7H-pyrrolo[2,3-d]pyrimidin-4-yl)-1H-pyrazol-1-yl]azetidin-3-yl}acetonitrile], in experiment [1], the half-inhibitory concentration (IC50) was less than 0.01 µM. The JAK2/JAK1 in experiment [2] is more than 10.
With `N#CC[C@]1(n2cc(-c3ncnc4[nH]ccc34)cn2)C[C@H](N2CCN(C(=O)c3ccnc(C(F)(F)F)n3)CC2)C1` [Compound 10, [trans-1-[4-(7H-pyrrolo[2,3-d]pyrimidin-4-yl)-1H-pyrazol-1-yl]-3-(4-{[2-(trifluoromethyl)pyrimidin-4-yl]carbonyl}piperazin-1-yl)cyclobutyl]acetonitrile], in experiment [1], the IC50 is less than 0.01 µM. Also, in experiment [2], the JAK2/JAK1 was more than 10.
For `C[C@H](O)CNCc1cc(OC2CCN([C@H]3C[C@](CC#N)(n4cc(-c5ncnc6[nH]ccc56)cn4)C3)CC2)nc(C(F)(F)F)c1` [Compound 25, {trans-3-(4-{[4-({[(2S)-2-hydroxypropyl]amino}methyl)-6-(trifluoromethyl)pyridin-2-yl]oxy}piperidin-1-yl)-1-[4-(7H-pyrrolo[2,3-d]pyrimidin-4-yl)-1H-pyrazol-1-yl]cyclobutyl}acetonitrile], in that order: less than 0.01 µM and more than 10.
For `C[C@@H](CO)NCc1cc(OC2CCN([C@H]3C[C@](CC#N)(n4cc(-c5ncnc6[nH]ccc56)cn4)C3)CC2)nc(C(F)(F)F)c1` [Compound 23, {trans-3-(4-{[4-({[(1S)-2-hydroxy-1-methylethyl]amino}methyl)-6-(trifluoromethyl)pyridin-2-yl]oxy}piperidin-1-yl)-1-[4-(7H-pyrrolo[2,3-d]pyrimidin-4-yl)-1H-pyrazol-1-yl]cyclobutyl}acetonitrile], in that order: less than 0.01 µM and more than 10.
For `N#CCC1(n2cc(-c3ncnc4[nH]ccc34)cn2)CN([C@H]2CC[C@@H](Oc3cc(CCO)nc(C(F)(F)F)n3)CC2)C1` [Compound 18, {1-(cis-4-{[6-(2-hydroxyethyl)-2-(trifluoromethyl)pyrimidin-4-yl]oxy}cyclohexyl)-3-[4-(7H-pyrrolo[2,3-d]pyrimidin-4-yl)-1H-pyrazol-1-yl]azetidin-3-yl}acetonitrile], in that order: less than 0.01 µM and more than 10.
`C[C@@H](O)CNCc1cc(OC2CCN([C@H]3C[C@](CC#N)(n4cc(-c5ncnc6[nH]ccc56)cn4)C3)CC2)nc(C(F)(F)F)c1` [Compound 24, {trans-3-(4-{[4-({[(2R)-2-hydroxypropyl]amino}methyl)-6-(trifluoromethyl)pyridin-2-yl]oxy}piperidin-1-yl)-1-[4-(7H-pyrrolo[2,3-d]pyrimidin-4-yl)-1H-pyrazol-1-yl]cyclobutyl}acetonitrile]: the IC50 in experiment [1] was less than 0.01 µM. For the same compound, in experiment [2], the JAK2/JAK1 is on record as more than 10.
In the same order, the values of `CC(C)(O)c1cc(O[C@H]2CC[C@@H](N3CC(CC#N)(n4cc(-c5ncnc6[nH]ccc56)cn4)C3)CC2)nc(C(F)(F)F)c1` [Compound 20, {1-(cis-4-{[4-(1-hydroxy-1-methylethyl)-6-(trifluoromethyl)pyridin-2-yl]oxy}cyclohexyl)-3-[4-(7H-pyrrolo[2,3-d]pyrimidin-4-yl)-1H-pyrazol-1-yl]azetidin-3-yl}acetonitrile] are less than 0.01 µM and more than 10.
On to `N#CCC(CN1CCN(C(=O)c2ccc(C#N)cc2F)CC1)n1ccc(-c2ncnc3[nH]ccc23)c1` (stereo not drawn) [Compound 9, 4-[(4-{3-cyano-2-[3-(7H-pyrrolo[2,3-d]pyrimidin-4-yl)-1H-pyrrol-1-yl]propyl}piperazin-1-yl)carbonyl]-3-fluorobenzonitrile], for which the IC50 in experiment [1] is less than 0.01 µM. Further, the JAK2/JAK1 in experiment [2] is recorded as more than 10.
In the same order, the values of `N#CC[C@]1(n2cc(-c3ncnc4[nH]ccc34)cn2)C[C@H](N2CCC(Oc3cc(CN4CCC[C@@H]4CO)cc(C(F)(F)F)n3)CC2)C1` [Compound 13, {trans-3-(4-{[4-{[(2R)-2-(hydroxymethyl)pyrroli-din-1-yl]methyl}-6-(trifluoromethyl)pyridin-2-yl]oxy}piperidin-1-yl)-1-[4-(7H-pyrrolo[2,3-d]pyrimidin-4-yl)-1H-pyrazol-1-yl]cyclobutyl}acetonitrile] are less than 0.01 µM and more than 10.
For `N#CCC(C1CCN(c2cccc(Cl)n2)C1)n1cc(-c2ncnc3[nH]ccc23)cn1` (single isomer, unassigned) [Compound 6, 3-[1-(6-chloropyridin-2-yl)pyrrolidin-3-yl]-3-[4-(7H-pyrrolo[2,3-d]pyrimidin-4-yl)-1H-pyrazol-1-yl]propanenitrile], in that order: less than 0.01 µM and more than 10.
`N#CCC(CN1CCN(C(=O)c2ccc(C#N)cc2F)CC1)n1cc(-c2ncnc3[nH]ccc23)cn1` (stereo not drawn) [Compound 8, 4-[(4-{3-cyano-2-[4-(7H-pyrrolo[2,3-d]pyrimidin-4-yl)-1H-pyrazol-1-yl]propyl}piperazin-1-yl)carbonyl]-3-fluorobenzonitrile] returned an IC50 in experiment [1] of less than 0.01 µM. In experiment [2], the JAK2/JAK1 is more than 10.
In the same order, the values of `CCNCc1cc(O[C@H]2CC[C@@H](N3CC(CC#N)(n4cc(-c5ncnc6[nH]ccc56)cn4)C3)CC2)nc(C(F)(F)F)c1` [Compound 19, {1-(cis-4-{[4-[(ethylamino)methyl]-6-(trifluoromethyl)pyridin-2-yl]oxy}cyclohexyl)-3-[4-(7H-pyrrolo[2,3-d]pyrimidin-4-yl)-1H-pyrazol-1-yl]azetidin-3-yl}acetonitrile] are less than 0.01 µM and more than 10.
In the same order, the values of `N#CC[C@]1(n2cc(-c3ncnc4[nH]ccc34)cn2)C[C@H](N2CCC(Oc3cc(CCO)cc(C(F)(F)F)n3)CC2)C1` [Compound 26, {trans-3-(4-{[4-(2-hydroxyethyl)-6-(trifluoromethyl)pyridin-2-yl]oxy}piperidin-1-yl)-1-[4-(7H-pyrrolo[2,3-d]pyrimidin-4-yl)-1H-pyrazol-1-yl]cyclobutyl}acetonitrile] are less than 0.01 µM and more than 10.
